Measured values: patent US9423396B2, “Bodipy structure fluorescence probes for diverse biological applications” (National University of Singapore, priority 2011, dated 2016)

Experiment: Spectroscopic measurements (absorption, emission, quantum yield, extinction coefficient)
Format: physicochemical
[1] = BDNCA library, difference emission minus absorption
[2] = BDNCA library, extinction coefficient; in M-1 cm-1 (unit assumed)
[3] = BDNCA library, fluorescence emission
[4] = absorption maximum, BDNCA library
[5] = extinction coefficient, BDNCA library; in M-1 cm-1 (unit assumed)
[6] = fluorescence emission maximum, BDNCA library
[7] = difference of emission and absorption maxima

SMILES	Qunt. Yield (BDNCA library)	Abs (BDNCA library, absorption) [nm]	Flu-Abs [1]	ε [2]	Flu [3]	Abs [4] [nm]	ε [5]	Flu [6]	Qunt. Yield (quantum yield, BDNCA library)	Flu-Abs [7]
CC1=CC(/C=C/c2c(C)cccc2Cl)=[N+]2C1=C(c1ccc(NC(=O)CCl)cc1)c1cccn1[B-]2(F)F [BDNCA-285]	0.12	544	27	44,211	571	–	–	–	–	–
CC1=CC(/C=C/c2cccc([N+](=O)[O-])c2O)=[N+]2C1=C(c1ccc(NC(=O)CCl)cc1)c1cccn1[B-]2(F)F [BDNCA-315]	–	–	–	–	–	655	15,652	weak	weak	–
CC1=CC(/C=C/c2ccc3ccc4cccc5ccc2c3c45)=[N+]2C1=C(c1ccc(NC(=O)CCl)cc1)c1cccn1[B-]2(F)F [BDNCA-103]	0.04	598	82	28,558	680	–	–	–	–	–
CC1=CC(/C=C/c2ccc(C)cc2C)=[N+]2C1=C(c1ccc(NC(=O)CCl)cc1)c1cccn1[B-]2(F)F [BDNCA-370]	–	–	–	–	–	507	34,050	585	0.08	78
COc1ccc(/C=C/c2cc(C)c3n2[B-](F)(F)[N+]2=CC=CC2=C3c2ccc(NC(=O)CCl)cc2)cc1 [BDNCA-110]	0.16	566	30	56,568	596	–	–	–	–	–
Cc1cc(/C=C/c2ccc(SC(F)(F)F)cc2)n2c1C(c1ccc(NC(=O)CCl)cc1)=C1C=CC=[N+]1[B-]2(F)F [BDNCA-363]	–	–	–	–	–	558	41,190	576	0.08	18
COc1cc(/C=C/C2=[N+]3C(=C(c4ccc(NC(=O)CCl)cc4)c4cccn4[B-]3(F)F)C(C)=C2)cc(Br)c1OC [BDNCA-259]	0.11	561	21	49,428	582	–	–	–	–	–
COc1cc(/C=C/C2=[N+]3C(=C(c4ccc(NC(=O)CCl)cc4)c4cccn4[B-]3(F)F)C(C)=C2)cc(I)c1OC [BDNCA-242]	0.14	561	25	70,847	586	–	–	–	–	–
COc1ccc(/C=C/c2cc(C)c3n2[B-](F)(F)[N+]2=CC=CC2=C3c2ccc(NC(=O)CCl)cc2)c(OC)c1 [BDNCA-206]	0.13	574	44	44,485	618	–	–	–	–	–
CCCCCCOc1ccc(/C=C/C2=[N+]3C(=C(c4ccc(NC(=O)CCl)cc4)c4cccn4[B-]3(F)F)C(C)=C2)cc1 [BDNCA-45]	0.13	566	32	82,929	598	–	–	–	–	–
CC1=CC(/C=C/c2ccc(OCCCN(C)C)cc2)=[N+]2C1=C(c1ccc(NC(=O)CCl)cc1)c1cccn1[B-]2(F)F [BDNCA-163]	0.04	566	29	24,165	595	–	–	–	–	–
COc1cc(/C=C/C2=[N+]3C(=C(c4ccc(NC(=O)CCl)cc4)c4cccn4[B-]3(F)F)C(C)=C2)cc(OC)c1 [BDNCA-209]	0.12	556	20	62,334	576	–	–	–	–	–
CC1=CC(/C=C/C2CCCCC2)=[N+]2C1=C(c1ccc(NC(=O)CCl)cc1)c1cccn1[B-]2(F)F [BDNCA-414]	–	–	–	–	–	524	49,428	547	0.09	23
COc1ccc(/C=C/c2cc(C)c3n2[B-](F)(F)[N+]2=CC=CC2=C3c2ccc(NC(=O)CCl)cc2)c(O)c1 [BDNCA-192]	0.03	577	53	21,693	630	–	–	–	–	–
CSc1ccccc1/C=C/C1=[N+]2C(=C(c3ccc(NC(=O)CCl)cc3)c3cccn3[B-]2(F)F)C(C)=C1 [BDNCA-333]	–	–	–	–	–	560	63,707	586	0.12	26
Cc1cc(/C=C/c2ccccc2OCC(=O)O)n2c1C(c1ccc(NC(=O)CCl)cc1)=C1C=CC=[N+]1[B-]2(F)F [BDNCA-128]	0.02	559	25	14,554	584	–	–	–	–	–
COc1cc(/C=C/C2=[N+]3C(=C(c4ccc(NC(=O)CCl)cc4)c4cccn4[B-]3(F)F)C(C)=C2)cc(Cl)c1OC [BDNCA-294]	0.14	560	21	63,158	581	–	–	–	–	–
CC(=O)Oc1ccc(/C=C/c2cc(C)c3n2[B-](F)(F)[N+]2=CC=CC2=C3c2ccc(NC(=O)CCl)cc2)cc1 [BDNCA-41]	–	–	–	–	–	565	47,780	594	0.13	29
COC(=O)c1ccc(/C=C/C2=[N+]3C(=C(c4ccc(NC(=O)CCl)cc4)c4cccn4[B-]3(F)F)C(C)=C2)cc1 [BDNCA-219]	0.16	560	21	73,043	581	–	–	–	–	–
CC1=CC(/C=C/c2ccc(-c3ccccc3)s2)=[N+]2C1=C(c1ccc(NC(=O)CCl)cc1)c1cccn1[B-]2(F)F [BDNCA-65]	0.04	593	37	30,755	630	–	–	–	–	–
CC1=CC(/C=C/c2[nH]cnc2C)=[N+]2C1=C(c1ccc(NC(=O)CCl)cc1)c1cccn1[B-]2(F)F [BDNCA-134]	weak	566	–	12,082	weak	–	–	–	–	–
Cc1cc(/C=C/c2ccc(Oc3ccc(C=O)cc3)cc2)n2c1C(c1ccc(NC(=O)CCl)cc1)=C1C=CC=[N+]1[B-]2(F)F [BDNCA-304]	0.02	561	25	18,673	586	–	–	–	–	–
CC1=CC(/C=C/c2ccc(-c3ccccn3)cc2)=[N+]2C1=C(c1ccc(NC(=O)CCl)cc1)c1cccn1[B-]2(F)F [BDNCA-88]	0.11	566	18	27,185	584	–	–	–	–	–
CCOc1cccc(/C=C/C2=[N+]3C(=C(c4ccc(NC(=O)CCl)cc4)c4cccn4[B-]3(F)F)C(C)=C2)c1OCC [BDNCA-317]	–	–	–	–	–	557	45,858	579	0.08	22
COc1cccc(F)c1/C=C/C1=[N+]2C(=C(c3ccc(NC(=O)CCl)cc3)c3cccn3[B-]2(F)F)C(C)=C1 [BDNCA-254]	0.09	559	22	56,018	581	–	–	–	–	–
COc1cc(/C=C/C2=[N+]3C(=C(c4ccc(NC(=O)CCl)cc4)c4cccn4[B-]3(F)F)C(C)=C2)cc(OC)c1O [BDNCA-95]	0.01	574	6	31,579	580	–	–	–	–	–
CC1=CC(/C=C/c2c[nH]c3ccc(Br)cc23)=[N+]2C1=C(c1ccc(NC(=O)CCl)cc1)c1cccn1[B-]2(F)F [BDNCA-185]	0.06	581	65	29,931	646	–	–	–	–	–
